What all share (experiment): NCI tumour cell line growth inhibition, 48 h
Assay [1] has as its system SF-268 CNS.
In assay [2] the test system is EKVX NSCLC.
The subject of assay [3] is ACHN renal.
Assay [4] relates to PC-3 prostate.
Assay [5] has as its system SN12C renal.
The test system of assay [6] is SF-295 CNS.
Assay [7] relates to A549 NSCLC.
Assay [8] relates to MDA-N.
Assay [9] relates to NCI-H460 lung.
Assay [10] deals with SK-MEL-2 melanoma.

23 compounds from PubChem BioAssay (NCI) can be followed below.

SMILES strings stand for the structures.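 Five compound concentrations were applied to cells in 96-well plates for 48 hours; endpoints were derived by simple linear interpolation of the resulting dose-response curve. GI50 = concentration required for 50% inhibition of growth. Definition used: TGI = concentration required for complete inhibition of growth.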

For `COC(=O)Nc1nc2ccc(NC(=O)c3cccs3)cc2[nH]1`, the TGI in assay [1], in assay [2], in assay [3], in [4], in assay [5] and in assay [6] was > 100 µM in each case. For the same compound, the TGI in [7] is > 100 µM; in assay [8], 36.7 µM; in [9], > 100 µM; in [10], > 100 µM.
`O=C1OC2CC=CC1C2` (stereo unspecified): the TGI in [1], in assay [2], in [5], in [6], in [7] and in assay [9] was > 100 µM each time. For the same compound, the TGI in assay [10] is > 100 µM.
`C=C1C(=O)OC2CC1CCC1(C)OC1CCC(C)=CCCC2(C)O` (stereo unspecified): the TGI stood at 14.2 µM in [1]; 13.9 µM in assay [2]; 11.6 µM in assay [5]; 33.8 µM in assay [6]; 26.9 µM in assay [7]; 7.85 µM in assay [9]. For the same compound, the TGI in assay [10] amounted to 14.2 µM.
On to `c1ccc(C[N+]23CN4CN(CN(C4)C2)C3)cc1`, for which the TGI is 85.8 µM in assay [1]; > 100 µM in assay [2]; 87.9 µM in assay [3]; 35.7 µM in [4]; > 100 µM in [5]; > 100 µM in [6]. The TGI was 91.8 µM in [7], > 100 µM in assay [8], > 100 µM in assay [9] and 34.6 µM in assay [10].
In the case of `O=C1CCCC2C3CC(CN12)C1CCCCN1C3` (stereo unspecified), the TGI in [1], in [2], in assay [3], in assay [4], in [5] and in assay [6] was > 100 µM each time. Besides, the TGI in [7], in [8], in assay [9] and in [10] was > 100 µM throughout.
For `CN1CC(CNC(=O)OCc2ccccc2)CC2c3cccc4c3c(cn4C)CC21` (stereo unspecified), the GI50 in assay [1] was 3.48 µM; in [2], 5.2 µM; in [3], 2.29 µM; in assay [4] it was 2.07 µM; in assay [5] it was 2.86 µM; in assay [6], 2.09 µM. Further, the GI50 was 2.22 µM in [7], 1.83 µM in [9] and 1.88 µM in assay [10]. For the same compound, the TGI is 13.4 µM in assay [1]; 21.3 µM in assay [2]; 5.58 µM in [3]; 6.28 µM in assay [4]; 11.3 µM in assay [5]; 4.76 µM in [6]. In addition, the TGI was 5.24 µM in [7], 3.55 µM in assay [9] and 3.45 µM in [10].
Take `O=C1OCc2cc3cc4c(cc3c(-c3ccc5c(c3)OCO5)c21)OCO4` (tested in a mixture with another compound): the TGI in assay [4] is > 100 µM; in assay [5], > 100 µM; in [6] it was 31.4 µM; in assay [8], 19.2 µM; in assay [9], > 100 µM; in assay [10], 68 µM.
Take `O=C(COc1ccc(Cl)c(Cl)c1)N(Cc1ccccc1)Cc1ccc[n+](Cc2ccc(Cl)cc2S(=O)(=O)F)c1`: the TGI in [1], in assay [3], in [4], in assay [5], in assay [6] and in [7] was > 100 µM throughout. Also, the TGI in [9] was > 100 µM; in [10] it was 70.1 µM.
With `COc1ccc(NC(=S)N/N=C(\C)c2nc3ncccc3[nH]2)cc1`, the TGI is > 100 µM in assay [1]; > 100 µM in assay [2]; > 100 µM in assay [3]; 45.2 µM in assay [4]; > 100 µM in assay [5]; > 100 µM in [6]. The TGI in assay [7] was > 100 µM; in assay [8] it was > 100 µM; in assay [9], 37.9 µM; in [10], > 100 µM.
With `Cl/C(=C\C=Nc1ccc(I)cc1)c1ccc2ccccc2c1`, the TGI was 65.4 µM in [1]; > 100 µM in assay [2]; 29.9 µM in assay [3]; > 100 µM in assay [4]; 40.6 µM in assay [5]; 51.3 µM in [6]. Further, the TGI in assay [7] is > 100 µM; in [9] it was > 79.4 µM; in [10], 56.1 µM.
Regarding `CC(=O)NNC(=O)C1CCCCN1` (stereo unspecified), the TGI in [1], in assay [2], in assay [3], in assay [4], in assay [5] and in assay [6] was > 100 µM in each case. Moreover, the TGI in assay [7], in assay [8], in [9] and in assay [10] was > 100 µM in each case.
For `CCCC(=O)O.CCCC(=O)O.CCCC(=O)O.CCCC(=O)O.[Rh].[Rh]`, the GI50 is 0.168 µM in [2]; 0.0451 µM in [3]; 0.0618 µM in [4]; 0.165 µM in assay [9]; 0.285 µM in [10]. The TGI was found to be 0.943 µM in assay [2]; 0.212 µM in [3]; 0.47 µM in [4]; 0.327 µM in assay [9]; 0.896 µM in assay [10].
Take `Cc1cc(C)nc(SCCc2cccc[n+]2C)n1`: the TGI in assay [1], in assay [2], in [3], in assay [4], in assay [5] and in assay [6] was > 100 µM in each case. Moreover, the TGI in assay [7], in assay [8] and in assay [9] was > 100 µM each time.
Turning to `Br/C(=N\Nc1nn[nH]n1)c1ccncc1`, the TGI in [1], in [2], in [3], in [4], in [5] and in [6] was > 100 µM each time. In addition, the TGI in assay [7], in [8], in [9] and in assay [10] was > 100 µM throughout.
In the case of `CC[C@]12C=CCN3CC[C@@]4(c5cc(Br)c(OC)cc5N(C)[C@H]4[C@@](O)(C(=O)N[C@@H](Cc4ccc(O)cc4)C(=O)OC)[C@@H]1O)[C@@H]32`, the TGI is 52.4 µM in assay [1]; > 100 µM in [2]; > 100 µM in [3]; > 100 µM in [4]; 37.9 µM in [5]; 38.7 µM in [6]. In addition, the TGI in [7] was > 100 µM; in [8] it was 49.1 µM; in assay [9] it was 40.5 µM; in assay [10], 60.1 µM.
`COc1c(OC/C=C(\C)CCC=C(C)C)ccc2ccc(=O)oc12`: the TGI in assay [1], in assay [2], in [3], in [4], in [5] and in assay [6] was > 100 µM each time. Moreover, the TGI in assay [7], in assay [8] and in assay [10] was > 100 µM each time.
Regarding `CC(C)(C)OC(=O)NC1CCC(C(C)(C)C)CC1` (stereo unspecified), the TGI in [1] was > 100 µM; in assay [2] it was > 100 µM; in assay [5], > 100 µM; in assay [6] it was > 55.3 µM; in assay [7] it was > 100 µM; in assay [9], > 100 µM. For the same compound, the TGI in [10] came to 71.3 µM.
As to `O=C(Oc1ccc(Cl)cc1[N+](=O)[O-])c1ccccc1`, the TGI in [1], in assay [2], in assay [3], in assay [5], in assay [6] and in [7] was > 100 µM each time. For the same compound, the TGI in [9] and in assay [10] was > 100 µM each time.
As to `COc1ccc(OC)c(CC(C)N)c1` (stereo unspecified), the TGI in [1], in assay [2], in assay [3], in assay [5], in [6] and in assay [7] was > 100 µM each time. In addition, the TGI in [9] and in [10] was > 100 µM each time.
For the compound `C=CCSSCC=C`, the TGI in assay [1] was > 90.5 µM; in assay [2], > 100 µM; in [3], > 100 µM; in assay [4] it was > 100 µM; in assay [5], > 86.9 µM; in [6] it was > 100 µM. The TGI is > 100 µM in assay [7], > 80.2 µM in assay [8], > 100 µM in assay [9] and > 100 µM in assay [10].
Consider `Cn1c2c3ccc(Cl)cc3nc-2c(Cl)c2ccccc21`, for which the TGI was found to be 36.3 µM in assay [1]; 90.2 µM in [2]; 32 µM in assay [3]; 38.1 µM in assay [4]; 34.5 µM in assay [5]; 36.6 µM in assay [6]. Besides, the TGI is > 100 µM in [7], 46.2 µM in assay [8], 43.8 µM in [9] and 48.2 µM in assay [10].
Consider `SC1CCCN(Cc2ccccc2)C1` (stereo unspecified), for which the TGI in [1], in assay [2], in assay [3], in assay [4], in [5] and in assay [6] was > 100 µM each time. Also, the TGI in assay [7] was > 100 µM; in assay [8], > 100 µM; in assay [9], 64.7 µM; in assay [10] it was > 100 µM.
Regarding `O=C(/C=C/c1ccccc1)N1CCCCC1`, the TGI in assay [1], in [2], in assay [3], in assay [4], in assay [5] and in assay [6] was > 100 µM throughout. Moreover, the TGI in [7], in assay [8], in assay [9] and in [10] was > 100 µM each time.
